Values quoted from earlier work as cited in patent US6780852B2 (priority 1997, dated 2004).

Substance: Ferric gluconate
- transient hypotension and flushing, share of exposed patients: 1%
